Laboratory results published in patent publication US12012383B2, “Compositions and methods for inhibiting dihydroorotate dehydrogenase” (Clear Creek Bio, Inc., priority 2018, dated 2024).
Where two headings read alike, the source gives them in different places.

Key:
solid malignancies = details: 43 patients; patient with papillary carcinoma of the thyroid (Schwartsmann); cited from earlier work
DHODH [1] = target: DHODH (Homo sapiens, UniProt Q02127); details: for DHO plasma level threshold achieved: after a dose
mouse model of AML = details: daily administration of high doses; cited from earlier work
[2] = test system: acute myeloid leukemia (AML); test: Clinical response of patients with AML to brequinar-containing composition (Examples 9-11); type: in vivo, human
DHODH [3] = target: DHODH (Mus musculus, UniProt O35435); test: Plasma DHO in mice after brequinar 50 mg/kg (FIG. 6); details: at about 84 hours, FIG. 6 dashed line
advanced malignancies = details: cited from earlier work
[4] = Adverse events in subjects receiving brequinar intravenously once a week (Example 2); type: in vivo, human; details: 209 subjects, i.v. once a week, median dose 1200 mg/m^2
[5] = Example 9, first patient with AML, threshold 1,600 ng/mL
[6] = Example 10, second patient with AML, threshold 2,900 ng/mL
[7] = Example 11, patient with AML, threshold 133 ng/mL

Chain of DHODH (Homo sapiens, UniProt Q02127) (Q02127 whole entry): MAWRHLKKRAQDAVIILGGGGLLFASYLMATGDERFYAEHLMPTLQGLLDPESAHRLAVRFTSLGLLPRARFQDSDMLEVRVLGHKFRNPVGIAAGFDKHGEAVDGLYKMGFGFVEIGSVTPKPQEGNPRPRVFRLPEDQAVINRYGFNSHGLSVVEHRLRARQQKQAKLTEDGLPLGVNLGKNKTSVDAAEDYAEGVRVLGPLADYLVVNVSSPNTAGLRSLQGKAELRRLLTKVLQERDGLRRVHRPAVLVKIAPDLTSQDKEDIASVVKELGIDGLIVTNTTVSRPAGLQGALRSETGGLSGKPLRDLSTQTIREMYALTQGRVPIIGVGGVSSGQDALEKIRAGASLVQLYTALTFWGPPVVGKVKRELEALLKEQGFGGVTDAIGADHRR
Chain of DHODH (Mus musculus, UniProt O35435) (O35435 whole entry): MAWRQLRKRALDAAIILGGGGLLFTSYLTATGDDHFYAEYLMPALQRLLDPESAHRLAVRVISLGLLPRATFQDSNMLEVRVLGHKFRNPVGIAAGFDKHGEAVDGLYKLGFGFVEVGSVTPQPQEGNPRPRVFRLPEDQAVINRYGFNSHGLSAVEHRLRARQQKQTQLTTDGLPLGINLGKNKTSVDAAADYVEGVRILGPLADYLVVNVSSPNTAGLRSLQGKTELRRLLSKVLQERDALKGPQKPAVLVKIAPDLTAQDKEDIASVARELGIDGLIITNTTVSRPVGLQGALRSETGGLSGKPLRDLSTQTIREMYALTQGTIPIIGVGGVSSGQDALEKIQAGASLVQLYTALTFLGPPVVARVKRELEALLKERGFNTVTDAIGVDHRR

| SMILES | tumor response observed (solid malignancies) | DHO plasma level threshold achieved (DHODH [1]; Example 9, first patient with AML) | time remained above DHO threshold (DHODH [1]; [5]) [h] | time to achieve DHO plasma level threshold (DHODH [1]; [5]) | DHO plasma level threshold achieved (DHODH [1]; Example 10, second patient with AML) | time remained above DHO threshold (DHODH [1]; [6]) [h] | time to achieve DHO plasma level threshold (DHODH [1]; [6]) [h] | DHO plasma level threshold achieved (DHODH [1]; Example 11, patient with AML) [ng/mL] | time remained above DHO threshold (DHODH [1]; [7]) [h] | time to achieve DHO plasma level threshold (DHODH [1]; [7]) | toxicity in mouse model of AML (mouse model of AML) | clinical response ([2]; Example 9, first patient with AML, bone marrow blast count, extramedullary hematopoiesis, differentiation of peripheral blasts) | clinical response ([2]; Example 10, second patient with AML, peripheral blasts, absolute neutrophil count, differentiation of peripheral blasts) | clinical response ([2]; Example 11, patient with AML, trend towards differentiation of peripheral blasts) | concentration of DHO remaining in the plasma (DHODH [3]) | effect of combination on individual drug pharmacokinetic parameters (advanced malignancies; 650 mg/m^2 brequinar with 75 mg/m^2 cisplatin (Burris)) | brequinar dose that can be administered with full dose cisplatin (advanced malignancies; brequinar days 1, 8 and 15 with 75 mg/m^2 cisplatin day 1, 28-day cycle (Burris)) [mg/m^2] | Dyspepsia: No. of Patients Experiencing the AE, Max Grade 1 [4] |
| --- | --- | --- | --- | --- | --- | --- | --- | --- | --- | --- | --- | --- | --- | --- | --- | --- | --- | --- |
| Cc1c(-c2ccc(-c3ccccc3F)cc2)nc2ccc(F)cc2c1C(=O)O [Brequinar sodium] | One mixed response |  |  |  |  |  |  |  |  |  |  |  |  |  |  |  |  |  |
| Cc1c(-c2ccc(-c3ccccc3F)cc2)nc2ccc(F)cc2c1C(=O)O [brequinar, 6-fluoro-2-(2′-fluoro-1,1′ biphenyl-4-yl)-3-methyl-4-quinoline carboxylic acid] |  | ≥ 1,600 ng/mL | 84 | less than 24 hours | ≥ 2,900 ng/mL | 84 | < 24 | ≥ 133 | 84 | less than 2 hours | weight loss, anemia, and thrombocytopenia | positive response | positive response | positive response | about 100 ng/mL | without significant modifications of individual drug pharmacokinetic parameters | 650 | 6 |
